How the values were obtained:
[1] = Brain and plasma compound levels by LC-MS/MS after 5 mg/kg i.p. injection into mice
Procedure: One-month old B6C3HF1 female mice were given intraperitoneal injections of compounds at 5 mg/kg. 1 hour after injection, mice were lethally anesthetized with an intraperitoneal injection of ketamine hydrochloride (1 mg/10 g) and xylazine (0.1 mg/10 g) and perfused intracardially with PBS in accordance with protocols approved by the University of Pennsylvania.
Brain samples were homogenized in 10 mM ammonium acetate, pH 5.7 (1:2; w/v) using a handheld sonic homogenizer. Compound from 50 μL of brain homogenate or plasma was extracted with 200 μL acetonitrile, centrifuged, and the supernatant removed for LC/MS/MS analysis. Compounds were detected using multiple reaction monitoring (MRM) of their specific collision-induced ion transitions and quantified using peak areas.
The LC/MS/MS system was comprised of an Agility UPLC, a TQ MS, and controlled using MassLynx software (Waters Corporation, Milford, Mass., USA). Samples were separated on an Aquity BEH C18 column (1.7 μm, 2.1×50 mm) at 35° C. For operation in positive electrospray ionization mode, the mobile phase A was 0.1% (v/v) formic acid, and B was either acetonitrile or methanol with 0.1% (v/v) formic acid. For operation in negative electrospray ionization mode, the mobile phase A was 10 mM ammonium acetate, and B was methanol with 10 mM ammonium acetate, Injections of 5 μL were separated at a flow rate of 0.6 mL/min using a gradient from 5% to 95% B over two minutes followed by wash and re-equilibration steps.
The MS was operated with a desolvation temperature of 450° C. and a source temperature of 150° C. Desolvation and source nitrogen gas flows were 900 L/hr and 50 L/hr, respectively. Collision cell argon gas flow was 0.1 mL/min. Source and analyzer voltages were optimized for each compound using the MassLynx auto tune utility. Compound standards at 1000 ng/mL in 50% acetonitrile were infused at 30 μL/min and combined with flow from the UPLC at 0.6 mL/min and 50% B.
Standard curves were generated from spiked brain homogenate and plasma prepared at 4, 40, 400 and 4000 ng/mL and extracted as above. Peak area was plotted versus concentration and a 1/x weighted linear regression curve was used to quantify the unknowns using the average peak area from triplicate injections,
The following experiments were designed to analyze TP receptor antagonists to determine their relative BBB penetration. The TP receptor antagonists were administered via i.p. injection at 5 mg/kg to normal mice, and brain and plasma compound concentrations were assessed by LC-MS/MS at 1 and 4 hours after dosing.
To examine the blood-brain barrier permeability of these compounds, one-month old B6C3F1 mice were injected at 5 mg/kg and sacrificed 1 hour after injection.

[2] = Unbound fractions in plasma and brain homogenates by equilibrium dialysis; type: in vitro ADME
Text: Without wishing to be bound by any particular theory, it is believed that it is possible (although uncommon) for a BBB-permeable compound to have a very low B/P ratio if the fraction of free, unbound drug is much greater in the […]. More specifically, a drug that is freely diffusible across the BBB will at equilibrium have a free drug B/P ratio (B/Pfree)=1, where B/Pfree=B/P×fu(brain))/fu(plasma) (Maurer, et al., 2005, Drug Metab Dispos. 33:175-181; Kalvasset al., 2007, Drug Metab Dispos. 35:660-666) and fti represents unbound drug fractions. […] To ensure that the low B/P ratios obtained with the TP antagonists of Table 1 were truly reflective of poor BBB permeability, the unbound fractions in plasma and brain homogenates were measured using established equilibrium dialysis methods (Maurer, et al., 2005, Drug Metab Dispos. 33:175-181; Kalvasset al., 2007, Drug Metab Dispos. 35:660-666; Friden, et al., 2007, Drug Metab Dispos. 35:1711-1719). […] This is further illustrated by comparing the calculated B/Pfree ratios (Table 1), which are <<1. Because the existing repertoire of TP receptor antagonists share common structural features, including free carboxylate moieties, it is highly unlikely that any of these existing compounds would be sufficiently brain-penetrant to be potential AD therapeutics.

[3] = target: T1, human TP receptor (Homo sapiens, UniProt P21731); experiment: Radioligand binding assay (3H-SQ29,548), human TP receptor; conditions: hTP receptor
T1 construct: expressed in transfected cells
T1 sequence (P21731 1-343): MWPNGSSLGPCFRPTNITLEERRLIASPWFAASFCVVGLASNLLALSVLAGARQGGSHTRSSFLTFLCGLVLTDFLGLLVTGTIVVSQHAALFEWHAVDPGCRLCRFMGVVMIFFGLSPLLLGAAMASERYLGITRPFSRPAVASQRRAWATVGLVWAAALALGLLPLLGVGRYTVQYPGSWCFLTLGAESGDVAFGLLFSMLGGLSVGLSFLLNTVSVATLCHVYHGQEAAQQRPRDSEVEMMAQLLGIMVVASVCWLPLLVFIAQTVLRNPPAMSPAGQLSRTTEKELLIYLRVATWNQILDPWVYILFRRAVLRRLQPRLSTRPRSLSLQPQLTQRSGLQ
Procedure: (§1) QBI-HEK 293A cells expressing human or mouse TxA2 (TP) receptor were grown as described previously and harvested in phosphate-buffered saline with 1 mM EDTA. The cell pellet was homogenized in a glass homogenizer in 20 mM Hepes, 1 mM EGTA, 0.5 mM DTT with protease inhibitor cocktail. The homogenate was initially centrifuged at 1000×g for 10 minutes at 8° C. to remove cell debris. The homogenate was then centrifuged in a Beckman L8-70M ultracentrifuge (Beckman-Coulter, Brea, Calif., USA) at 21,000 rpm for 30 minutes at 4° C., and the pellet was resuspended in 20 mM Hepes, 1 mM EGTA, 100 mM NaCl. Membrane preparations were normalized to protein level as determined with a BCA assay (ThermoFisher, Rockland, Ill.) and stored at −80° C.
(§2) Test antagonists were incubated at 10 different concentrations with 25 μg membrane and 25 nM ^3H-SQ29,548 (PerkinElmer, Waltham, Mass., USA) in 50 mM Tris, 4 mM CaCl2, 0.1% ascorbic acid pH 7.5 for 2 hours at 25° C. in 96-well polystyrene plates. Separation of bound from free radioligand was accomplished by rapid vacuum filtration onto 96-well GF/B filter plates (PerkinElmer, Waltham, Mass., USA). Filters were washed 8 times in 50 mM Tris, pH 6.9 and allowed to dry for 16 hours, Plates were sealed and filters dissolved in 50 μL Betaplate Scintillation fluid (PerkinElmer, Waltham, Mass., USA) and read on a scintillation counter. Data are presented as percent total binding as calculated by a minimum of 3 wells containing membrane and ^3H-SQ29,548 without antagonist.
(§3) Equilibrium dissociation constants (Kd), IC50, and Schild regression analyses was performed with GraphPad Prism software (GraphPad Software Inc., La Jolla, Calif., USA).
(§4) To facilitate the characterization of the new compounds, cell-based TP receptor functional assays were optimized. HEK293 clones have been produced that stably express the human (hTP) or mouse (mTP) TP receptor (a isoform), and treatment of these clones with I-BOP ([1S-[1α,2α(Z),3β(1E,3S*),4α]]-7-[3-[3-hydroxy-4-(4-iodophenoxy)-1-butenyl]-7-oxabicyclo[2.2.1]hept-2-yl]-5-heptenoic acid) results in increased production of inositol triphosphate (IP3) (Knezevic, et al., 1993, Blood 82:A156; Shenker, et al., 1991, J Biol Chem 266:9309-9313; Huang, et al., 2004, Cell Signal 16:521-533) which can be quantified by measuring the breakdown product, inositol monophosphates (IP1), using a commercial time-resolved fluorescence assay. […] A radioligand binding assay was also developed to allow for the determination of binding affinities of compounds at the hTP and mTP receptors.

[4] = target: T2, mouse TP receptor (Mus musculus, UniProt P30987); experiment: Radioligand binding assay (3H-SQ29,548), mouse TP receptor; conditions: mTP receptor
T2 construct: expressed in transfected cells
T2 sequence (P30987 1-341): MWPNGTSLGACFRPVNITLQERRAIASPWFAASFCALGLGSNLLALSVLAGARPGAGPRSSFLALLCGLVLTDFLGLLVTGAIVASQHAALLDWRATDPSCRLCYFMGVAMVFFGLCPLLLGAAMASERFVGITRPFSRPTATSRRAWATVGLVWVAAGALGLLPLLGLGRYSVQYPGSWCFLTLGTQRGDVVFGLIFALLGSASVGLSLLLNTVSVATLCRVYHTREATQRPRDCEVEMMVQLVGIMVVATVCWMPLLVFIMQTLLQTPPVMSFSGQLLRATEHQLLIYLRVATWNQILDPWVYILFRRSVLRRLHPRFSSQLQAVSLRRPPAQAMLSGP
Procedure: as §1, §2, §3, §4

[5] = Pro-drug study: plasma levels of compound and carboxylic acid hydrolysis product (51280) by LC-MS/MS; type: in vivo; conditions: female mice, 5 mg/kg, 1 h after injection
Procedure: Ester and amide examples can serve as pro-drugs to release the potent carboxylic acid TP receptor antagonist CNDR-51280. Compounds in were administered at 5 mg/kg to female mice, and levels of the compound and the carboxylic acid hydrolysis product (51280) were evaluated by LC-MS/MS 1 h after injection (Table 3).

[6] = female, B6C3HF1, mouse, brain/plasma (unbound), ip, 5 mg/kg
[7] = female, B6C3HF1, mouse, brain/plasma, ip, 5 mg/kg
[8] = mice, 5 mg/kg i.p., 1 h after dosing
[9] = mice, 5 mg/kg i.p., 4 h after dosing

O=C(O)Cc1ccc(CCNS(=O)(=O)c2ccc(Cl)cc2)cc1 [Daltroban]
concentration at 1 h ([1]; female, B6C3HF1, mouse, brain, ip, 5 mg/kg, Brain, mice, 5 mg/kg i.p., 1 h after dosing): 133 ng/mL | concentration at 4 h ([1]; female, B6C3HF1, mouse, brain, ip, 5 mg/kg, Brain, mice, 5 mg/kg i.p., 4 h after dosing): 55.9 ng/mL | Kp at 1 h [1, 6]: 0.04 | Kp at 4 h [1, 6]: 0.06 | Kp at 1 h [1, 7]: 0.02 | Kp at 4 h [1, 7]: 0.03 | concentration at 1 h ([1]; female, B6C3HF1, mouse, plasma, ip, 5 mg/kg, Plasma, mice, 5 mg/kg i.p., 1 h after dosing): 6450 ng/mL | concentration at 4 h ([1]; female, B6C3HF1, mouse, plasma, ip, 5 mg/kg, Plasma, mice, 5 mg/kg i.p., 4 h after dosing): 1790 ng/mL | fraction unbound ([2]; brain homogenate, equilibrium dialysis, read-out: fu(brain) (fraction unbound)): 0.221 | plasma/brain unbound fraction ratio ([2]; plasma and brain homogenate, ratio of unbound fractions plasma/brain, read-out: fu(pl)/fu(br)): 0.52

CCCCCNC(=O)NS(=O)(=O)c1cc([N+](=O)[O-])ccc1NC1CCCCC1 [BM567]
B/P (brain-to-plasma ratio) ([1]; mice, 5 mg/kg i.p., 1 h): 0.01 | Brain [1, 8]: 40.2 ± 12.3 ng/mL | Plasma [1, 8]: 3600 ± 923 ng/mL | B/P (brain-to-plasma ratio) ([1]; mice, 5 mg/kg i.p., 4 h): 0.01 | Brain [1, 9]: 18.5 ± 7.8 ng/mL | Plasma [1, 9]: 2248 ± 1400 ng/mL | fu(plasma) (fraction unbound) ([2]; plasma, equilibrium dialysis): 0.004 +/− 0.001 | fu(pl)/fu(br) ([2]; ratio of unbound fractions plasma/brain): 0.20

O=C(CCc1cccc2c1CCC(NS(=O)(=O)c1ccc(Cl)cc1)C2)NCC(F)(F)F (centres unmarked) [Compound 51418, 3-(6-(4-Chlorophenylsullfonamido)-5,6,7,8-tetrahydronaphthalen-1-yl)-N-(2,2,2-trifluoroethyl)-propanamide]
affinity for TP receptor [3]: most tolerable substitutions | affinity for TP receptor [4]: most tolerable substitutions | Plasma (compound) [5]: 109 (+/− 45) nM | XCOOH Plasma (carboxylic acid hydrolysis product 51280) [5]: 100 (+/− 43) nM

O=S(=O)(NC1CCc2c(CCC3OCCO3)cccc2C1)c1ccc(Cl)cc1 (centres unmarked) [Compound 51414]
brain penetration / brain levels of the drug ([1]; B6C3F1 mice, 5 mg/kg, 1 hour after injection; 5 mg/kg): greatly increased brain levels of the drug | brain penetration / brain levels of the drug ([1]; B6C3F1 mice, 5 mg/kg, 1 hour after injection; listed as CNDR-51414, 5 mg/kg): brain-penetrant

O=S(=O)(NC1CCc2c(CCc3nn[nH]n3)cccc2C1)c1ccc(Cl)cc1 (centres unmarked) [Compound 51279, N-(5-(2-(2H-Tetrazol-5-yl)ethyl)-1,2,3,4-tetrahydronaphthalen-2-yl)-4-chlorobenzenesulfonamide]
brain penetration / brain levels of the drug ([1]; B6C3F1 mice, 5 mg/kg, 1 hour after injection): very little brain penetration | affinity for TP receptor [3]: most tolerable substitutions | affinity for TP receptor ([3]; listed as CNDR-51279): well tolerated | affinity for TP receptor [4]: most tolerable substitutions | affinity for TP receptor ([4]; listed as CNDR-51279): well tolerated

Source: patent US20130190370A1, “Novel Tetrahydronaphalene Antagonists to the Thromboxane A2 (TP) Receptor” (The Trustees of the University of Pennsylvania, priority 2010, published 2013)
